Consider six compounds from patent US12486302B2, “Somatostatin receptor antagonist compounds and methods of using the same” (CDRD VENTURES INC., priority 2016, dated 2025).

*1 amine or outer side, *2 acyl side, *3 side chain or, on linkers, in order; H or OH if unused. Where a SMILES comes first, the peptide text is derived from it. Bridges are numbered along the chain shown (N, C = ends). Side-chain parts run from the residue outwards. [ ]: non-standard residue; d: D form. The star is where a group is joined. X1 = O=C([C@@H](Cc1ccc(NS(=O)(=O)c2ccccc2)cc1)N[*:1])[*:2]; dPhe(4-CH2NHCONH2) = NC(=O)NCc1ccc(C[C@@H](N)C(=O)O)cc1; dPhe(4-CONH2) = NC(=O)c1ccc(C[C@@H](N)C(=O)O)cc1; X2 = CCCCCNc1ccc(C[C@@H](N[*:1])C(=O)[*:2])cc1; dPhe(4-NH2) = Nc1ccc(C[C@@H](N)C(=O)O)cc1; Phe(4-Cl) = N[C@@H](Cc1ccc(Cl)cc1)C(=O)O; Lys(Me) = CNCCCC[C@H](N)C(=O)O; CO = O=C([*:1])[*:2]; NHPh = c1ccc(N*)cc1 Bounds are passed on as bounds.

For one test, the target named is SSTR1 (Homo sapiens, UniProt P30872). Description: PathHunter β-Arrestin assay, antagonist mode, SSTR1. The conditions noted are these: agonist challenge at EC80. The format is cell-based. Here is the method:
(§1) The PathHunter® β-Arrestin assay monitors the activation of a GPCR in a homogenous, non-imaging assay format using a technology developed by DiscoveRx called Enzyme Fragment Complementation (EFC) with β-galactosidase (β-Gal) as the functional reporter. […] EA is fused to β-Arrestin and […] is fused to the GPCR of interest. When the GPCR is activated and β-Arrestin is recruited to the receptor, ED and EA complementation occurs, restoring β-Gal activity which is measured using chemiluminescent PathHunter® Detection Reagents. For antagonist determination, cells were pre-incubated with the compounds followed by agonist challenge at the EC80 concentration. Data was normalized to the maximal and minimal response observed in the presence of EC80 ligand and vehicle. Compound activity was analyzed using CBIS data analysis suite ChemInnovation, CA). Percentage inhibition was calculated using the following formula: % Inhibition=100%×(1−(mean signal of test sample-mean signal of vehicle control)/(mean signal of EC80 control-mean signal of vehicle control)). Percentage inhibition was calculated at 10 concentrations in steps on a Log 3 scale ranging from […] to 5e-5 μM. The results were plotted for IC50 calculation.

Test [1] concerns the target somatostatin type 2 (SSTR2) receptors (Homo sapiens, UniProt P30874). Description: PathHunter β-Arrestin assay, antagonist mode, SSTR2. The following applies: agonist challenge at EC80. It is filed as cell-based. The procedure, abridged: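 Cells co-expressing PK-tagged human receptor and EA-β-Arrestin were pre-incubated with compound, then challenged with agonist at EC80. β-Gal complementation read by chemiluminescence; % inhibition normalized to EC80 and vehicle controls at 10 concentrations (log 3 steps from 1 μM down to 5e-5 μM), fitted for IC50.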

The next test deals with SSTR3 (Homo sapiens, UniProt P32745). Description: PathHunter β-Arrestin assay, antagonist mode, SSTR3. The conditions noted are these: agonist challenge at EC80. The format is cell-based. Here is the method:
as §1

For another test, the target named is SSTR4 (Homo sapiens, UniProt P31391). Description: PathHunter β-Arrestin assay, antagonist mode, SSTR4. The following applies: agonist challenge at EC80. It is filed as cell-based. As for the experimental part: as §1
The target in the next test is SSTR5 (Homo sapiens, UniProt P35346). Description: PathHunter β-Arrestin assay, antagonist mode, SSTR5. The following applies: agonist challenge at EC80. The format is cell-based. As for the experimental part:
as §1

In test [2] the test system is STZ diabetic Sprague Dawley rats. Description: Hypoglycemic Challenge #1 (10 U/kg insulin) in STZ diabetic rats. It is filed as in vivo, rat. The following applies: for period after insulin with significantly higher BG values compared with Vehicle Control: 2-Way ANOVA, insulin 10 U/kg; for peak glucagon value: saphenous blood, 0 to 100 minutes after insulin dosing. As for the experimental part:
(§2) Male Sprague Dawley rats (initial weight 150-175 g) were purchased from Charles River Laboratories (Montreal, QC, Canada). Rats were housed in the York University Vivarium in a 12-hour light dark cycle. All animals were fed a standard rodent chow diet (14% fat, 54% carbohydrates, […] & 3.0 calories/g of food) and water ad libitum. After a minimum of one week of acclimation, all animals received an intraperitoneal injection of streptozotocin (STZ) (Sigma) at a dose of 65 mg/kg body weight. After STZ injection, animals were provided with sugar water (5% solution) overnight. Any animals whose blood glucose was not greater than 10 mM within 2 days of STZ injection received a second injection.
One week after induction of diabetes, insulin treatment was initiated to maintain blood glucose values within a reasonable glucose controlled range in the fasted state (8-20 mM). Insulin pellets (LinChin, Toronto, ON, Canada) were implanted subcutaneously in any rat with blood glucose over 20 mM. Briefly, animals were anesthetized via inhaled isoflurane and pellets were implanted subcutaneously within the scapular region. One week later animals underwent their first hypoglycemic challenge (Hypoglycemic Challenge #1), followed by a second hypoglycemic challenge (Hypoglycemic Challenge #2) the following week (see below). Throughout the study, daily animals checks were conducted to assess body weight, blood glucose as well as food/calorie consumption.
Animals were divided into groups and received Compound 4, or Compound 24 or a corresponding dose of vehicle. Compounds were given 1 hour prior to commencement of the hypoglycemic challenge. On the morning of the hypoglycemic challenge, food was removed from the cage and a plasma sample was collected as baseline (prior to compound/vehicle administration), one-hour post drug/vehicle administration and at set points throughout the challenges.
For Hypoglycemic Challenge #1, hypoglycemia was induced via subcutaneous administration of a bolus of insulin (10U Novo Rapid insulin/kg body weight). Blood glucose was assessed every 10 minutes via saphenous vein puncture. Additionally, plasma was collected from the saphenous vein every 20 minutes, until 100-minutes post insulin administration. An additional plasma sample was collected 4-hours post drug administration (3 hours post insulin bolus) for mass spectrometry analysis of the compounds in plasma.

The test system is the same in test [3]. Description: Hypoglycemic Challenge #2 (20 U/kg insulin) in STZ diabetic rats. It is filed as in vivo, rat. The conditions noted are these: 20 U/kg insulin challenge; target BG 2.5 mM; N=9. As for the experimental part:
as §2
One week after induction of diabetes, insulin treatment was initiated to maintain blood glucose values within a reasonable glucose controlled range in the fasted state (8-20 mM). Insulin pellets (LinChin, Toronto, ON, Canada) were implanted subcutaneously in any rat with blood glucose over 20 mM. […]
One week after the first hypoglycemia challenge, a second similar hypoglycemic challenge (Hypoglycemia Challenge #2) was conducted; however this time a higher dose of insulin was given to insure that severe hypoglycemia developed (20U Novo Rapid/kg body weight). Blood glucose was monitored, every 5-10 min, via saphenous vein puncture. […]

Sequence of SSTR3 (P32745 whole entry): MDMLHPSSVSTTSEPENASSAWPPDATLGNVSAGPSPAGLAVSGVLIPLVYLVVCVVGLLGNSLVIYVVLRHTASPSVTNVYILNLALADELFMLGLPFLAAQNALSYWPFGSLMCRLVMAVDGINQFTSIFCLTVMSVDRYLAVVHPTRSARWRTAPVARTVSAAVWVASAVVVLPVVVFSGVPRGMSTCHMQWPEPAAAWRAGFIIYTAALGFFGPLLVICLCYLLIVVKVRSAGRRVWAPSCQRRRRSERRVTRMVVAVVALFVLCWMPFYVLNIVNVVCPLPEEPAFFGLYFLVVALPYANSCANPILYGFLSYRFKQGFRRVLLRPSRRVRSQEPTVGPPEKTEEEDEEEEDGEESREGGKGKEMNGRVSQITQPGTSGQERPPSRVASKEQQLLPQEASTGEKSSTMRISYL
Sequence of somatostatin type 2 (SSTR2) receptors (P30874 whole entry): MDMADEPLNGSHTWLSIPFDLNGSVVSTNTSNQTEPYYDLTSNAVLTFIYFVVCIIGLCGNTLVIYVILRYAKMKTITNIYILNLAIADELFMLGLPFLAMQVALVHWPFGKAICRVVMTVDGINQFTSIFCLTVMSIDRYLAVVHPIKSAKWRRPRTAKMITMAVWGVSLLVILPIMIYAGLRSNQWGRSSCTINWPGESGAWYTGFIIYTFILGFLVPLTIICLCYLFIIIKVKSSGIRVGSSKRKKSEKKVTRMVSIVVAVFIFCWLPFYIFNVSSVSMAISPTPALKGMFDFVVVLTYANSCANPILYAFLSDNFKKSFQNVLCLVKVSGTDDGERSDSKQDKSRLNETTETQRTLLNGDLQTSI
Sequence of SSTR4 (P31391 whole entry): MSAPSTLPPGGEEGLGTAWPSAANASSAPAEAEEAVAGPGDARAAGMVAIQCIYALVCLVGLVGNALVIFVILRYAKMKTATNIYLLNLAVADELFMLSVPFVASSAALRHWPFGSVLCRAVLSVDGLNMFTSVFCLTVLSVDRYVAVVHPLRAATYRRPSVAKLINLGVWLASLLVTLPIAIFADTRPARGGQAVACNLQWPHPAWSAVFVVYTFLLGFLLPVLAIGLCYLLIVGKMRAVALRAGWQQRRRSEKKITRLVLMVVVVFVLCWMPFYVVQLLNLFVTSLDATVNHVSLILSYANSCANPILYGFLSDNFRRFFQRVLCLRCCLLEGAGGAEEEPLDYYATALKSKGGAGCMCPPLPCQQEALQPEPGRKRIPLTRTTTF
Sequence of SSTR1 (P30872 whole entry, the tested form may be a part): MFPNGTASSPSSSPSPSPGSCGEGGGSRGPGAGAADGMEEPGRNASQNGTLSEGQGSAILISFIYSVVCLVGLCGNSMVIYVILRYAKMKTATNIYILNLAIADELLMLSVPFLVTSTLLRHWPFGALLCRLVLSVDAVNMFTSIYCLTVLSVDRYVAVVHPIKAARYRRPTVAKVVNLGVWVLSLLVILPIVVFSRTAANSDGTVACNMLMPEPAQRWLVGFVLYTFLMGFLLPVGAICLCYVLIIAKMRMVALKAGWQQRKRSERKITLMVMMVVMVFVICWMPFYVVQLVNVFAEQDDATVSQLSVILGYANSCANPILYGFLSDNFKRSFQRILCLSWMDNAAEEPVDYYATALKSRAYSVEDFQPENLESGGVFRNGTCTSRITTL
Sequence of SSTR5 (P35346 whole entry): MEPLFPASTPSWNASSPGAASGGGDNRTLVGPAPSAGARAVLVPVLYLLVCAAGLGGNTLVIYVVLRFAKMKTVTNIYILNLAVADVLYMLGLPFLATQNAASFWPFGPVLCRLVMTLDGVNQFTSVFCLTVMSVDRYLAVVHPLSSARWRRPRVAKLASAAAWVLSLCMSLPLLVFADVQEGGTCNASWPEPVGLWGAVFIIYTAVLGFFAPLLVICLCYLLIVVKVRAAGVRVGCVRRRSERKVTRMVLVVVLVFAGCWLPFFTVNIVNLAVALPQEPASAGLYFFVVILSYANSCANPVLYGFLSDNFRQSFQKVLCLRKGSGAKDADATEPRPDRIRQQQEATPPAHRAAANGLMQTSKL

With `C[C@@H](O)[C@@H]1NC(=O)[C@H](CCCCN)NC(=O)[C@@H](Cc2ccc(C(N)=O)cc2)NC(=O)[C@H](Cc2ccc(O)cc2)NC(=O)[C@H](NC(=O)[C@@H](N)Cc2ccc(Cl)cc2)CSSC[C@@H](C(=O)N[C@H](Cc2ccc(O)cc2)C(N)=O)NC1=O` [Compound 4, H-Cpa-cyclo[D-Cys-Tyr-D-Phe(4-carbamoyl)-Lys-Thr-Cys]-D-Tyr-NH2], the IC50 on SSTR1 was over 1000 nM; in test [1], 17 nM; at SSTR3, over 1000 nM; at SSTR4, over 1000 nM; on SSTR5 it was over 1000 nM. In test [2] (N=9), the “period after insulin with significantly higher BG values compared with Vehicle Control” value came out at 20 min. In addition, the “incidence of severe hypoglycemia (BG threshold 1.9 mM)” value in test [2] (after 130 minutes) turned out to be 33%. Besides, the peak glucagon value in test [2] (N=9) was 180 pg/mL. The “average portal blood glucagon concentration at hypoglycemia” value in test [3] is 462 pg/mL.
With `C[C@@H](O)[C@@H]1NC(=O)[C@H](CCCCN)NC(=O)[C@@H](Cc2ccc(CNC(N)=O)cc2)NC(=O)[C@H](Cc2ccc(O)cc2)NC(=O)[C@H](NC(=O)[C@@H](N)Cc2ccc(Cl)cc2)CSSC[C@@H](C(=O)N[C@H](Cc2ccc(O)cc2)C(N)=O)NC1=O` [Compound 7, H-Cpa-cyclo[DCys- Tyr-D-(4- ureidomethyl) Phe-Lys- Thr-Cys]-DTyr-NH2] (H-[Phe(4-Cl)][dC]Y[dPhe(4-CH2NHCONH2)]KTC[dY]-NH2; disulfide 2-7), the IC50 is over 1000 nM on SSTR1; 31 nM in test [1]; over 1000 nM at SSTR3; over 1000 nM at SSTR4; over 1000 nM on SSTR5.
In the case of `CCCCCNc1ccc(C[C@H]2NC(=O)[C@H](Cc3ccc(O)cc3)NC(=O)[C@H](NC(=O)[C@@H](N)Cc3ccc(Cl)cc3)CSSC[C@@H](C(=O)N[C@H](Cc3ccc(O)cc3)C(N)=O)NC(=O)[C@H]([C@@H](C)O)NC(=O)[C@H](CCCCN)NC2=O)cc1` [Compound 12, H-Cpa-cyclo[D-Cys-Tyr-D-Phe(4-n-pentylamino)-Lys-Thr-Cys]-D-Tyr-NH2] (H-[Phe(4-Cl)][dC]Y[X2]KTC[dY]-NH2; disulfide 2-7), the IC50 at SSTR1 is over 1000 nM; in test [1] it was 17 nM; on SSTR3 it was over 1000 nM; on SSTR4, over 1000 nM; at SSTR5 it was over 1000 nM.
Consider `C[C@@H](O)[C@@H]1NC(=O)[C@H](CCCCN)NC(=O)[C@@H](Cc2ccc(NS(=O)(=O)c3ccccc3)cc2)NC(=O)[C@H](Cc2ccc(O)cc2)NC(=O)[C@H](NC(=O)[C@@H](N)Cc2ccc(Cl)cc2)CSSC[C@@H](C(=O)N[C@H](Cc2ccc(O)cc2)C(N)=O)NC1=O` [Compound 14, H-Cpa-cyclo[DCys- Tyr-D-4- (benzenesulfonyl) Aph-Lys-Thr- Cys]-DTyr-NH2] (H-[Phe(4-Cl)][dC]Y[X1]KTC[dY]-NH2; disulfide 2-7), for which the IC50 on SSTR1 was over 1000 nM; in test [1], 21 nM; on SSTR3 it was over 1000 nM; on SSTR4 it was over 1000 nM; on SSTR5 it was over 1000 nM.
Consider `C[C@@H](O)[C@@H]1NC(=O)[C@H](CCCCN)NC(=O)[C@@H](Cc2ccc(NC(=O)Nc3ccccc3)cc2)NC(=O)[C@H](Cc2ccc(O)cc2)NC(=O)[C@H](NC(=O)[C@@H](N)Cc2ccc(Cl)cc2)CSSC[C@@H](C(=O)N[C@H](Cc2ccc(O)cc2)C(N)=O)NC1=O` [Compound 15, H-Cpa-cyclo[D-Cys-Tyr-D-Phe(4-phenylureido)-Lys-Thr-Cys]-D-Tyr-NH2] (H-[Phe(4-Cl)][dC]Y[dPhe(4-NH2)]([CO-NHPh])KTC[dY]-NH2; disulfide 2-7), for which the IC50 at SSTR1 was over 1000 nM; in test [1], 1 nM; on SSTR3 it was over 1000 nM; at SSTR4, over 1000 nM; at SSTR5, over 1000 nM.
Consider `CNCCCC[C@@H]1NC(=O)[C@@H](Cc2ccc(C(N)=O)cc2)NC(=O)[C@H](Cc2ccc(O)cc2)NC(=O)[C@H](NC(=O)[C@@H](N)Cc2ccc(Cl)cc2)CSSC[C@@H](C(=O)N[C@H](Cc2ccc(O)cc2)C(N)=O)NC(=O)[C@H]([C@@H](C)O)NC1=O` [Compound 24, H-Cpa-cyclo[D-Cys-Tyr-D-Phe(4-carbamoyl)-Lys(N^ε-Me)-Thr-Cys]-D-Tyr-NH2] (H-[Phe(4-Cl)][dC]Y[dPhe(4-CONH2)][Lys(Me)]TC[dY]-NH2; disulfide 2-7), for which the IC50 on SSTR1 is over 1000 nM; in test [1] it was 0.96 nM; on SSTR3 it was over 1000 nM; at SSTR4 it was over 1000 nM; on SSTR5, over 1000 nM. Moreover, in test [2] (N=9), the “period after insulin with significantly higher BG values compared with Vehicle Control” value is 40 min. For the same compound, the “time at which rats first became hypoglycemic (BG threshold 3.9 mM)” value in test [2] (2 of 9 rats, after insulin 10 U/kg) was 40 min. For the same compound, in test [2] (after 10 U/kg insulin dose, interpolated from BG curves, N=9), the “average time to onset of hypoglycemia (BG first reached 3.9 mM)” value amounted to 97 min. Moreover, the “incidence of severe hypoglycemia (BG threshold 1.9 mM)” value in test [2] (after 150 minutes) was found to be 44%. For the same compound, the “AUC of blood glucose below the 3.9 mM threshold (extent of hypoglycemia)” value in test [2] (compound at t=-60 min, insulin 10 U/kg at t=0, N=9) stood at 55 mM·min. The “number of rats that never became hypoglycemic” value in test [2] (of 9 rats, BG threshold 3.9 mM) is 1. Also, the peak glucagon value in test [2] (N=9) came to 175 pg/mL. In test [3], the “average portal blood glucagon concentration at hypoglycemia” value turned out to be 801 pg/mL.
